Counter-ions that a name gives are not always drawn. Bounds are passed on as bounds.

The results in this text go back to US12527779B2, “Prostaglandin E2 (PGE2) EP4 receptor antagonists” (Domain Therapeutics, priority 2019, dated 2026).

The assay concerns the target T1, human EP4 (hEP4) receptor (Homo sapiens, UniProt P35408).
T1 construct: expressed in transfected cells; host or cells: HEK-293 T cells, transient co-transfection with polyethylenimine
As to the kind of experiment: In vitro human EP4 functional antagonist activity using BRET biosensors (cAMP EPAC biosensor, TCS2510 stimulation). It counts as cell-based. The conditions noted are these: antagonist activity vs EC60 TCS2510, hEP4 in HEK-293 T cells. The protocol:
Examples of the present invention were tested successively for their agonist and antagonist activities on human EP4 (hEP4) receptor transiently over-expressed in HEK-293 T cells. […] The assay used to measure compound activity is based on the BRET technology. The unimolecular cAMP biosensor used to detect intracellular cAMP levels following GPCR stimulation consists of the EPAC protein fused to N- and C-terminal of Luciferase and GFP respectively.
Cell Culture and Transfection: HEK-293 T cells are maintained in Dulbecco's Modified Eagle's Medium supplemented with 10% Foetal Calf Serum, 1% Penicillin/Streptomycin at 37° C./5% CO2. Cells are co-transfected using polyethylenimine (25 kDa linear) with two DNA plasmids encoding hEP4, EPAC fused to luciferase (BRET donor) and to GFP (BRET acceptor). After transfection, cells are cultured (40,000 cells per well) for 48 h at 37° C./5% CO2.
BRET assay: Receptor activity is detected by changes in BRET signal. On the day of the assay, cells are rinsed and incubated in assay buffer (1.8 mM CaCl2, 1 mM MgCl2, 2.7 mM KCl, 137 mM NaCl, 0.4 mM NaH2PO4, 5.5 mM D-Glucose, 11.9 mM NaHCO3, 25 mM Hepes). Then, plates are equilibrated 1 h at 22° C. before adding compounds. Compounds and luciferase substrate are added to the cells using an automated device (Freedom Evo®, Tecan) and BRET readings are collected on EnVision (PerkinElmer) with specific filters (410 nm BW 80 nm, 515 nm BW 30 nm). Agonist and antagonist activities of compounds are consecutively evaluated on the same cell plate. Agonist activity is first measured after 5 min incubation with compound alone on the cells. Then, cells are stimulated by an EC60 TCS2510 concentration and luminescence is recorded for additional 10 min. EC60 TCS2510 concentration is the concentration giving 60% of the maximal TCS2510 response. Agonist or antagonist activities are evaluated in comparison to basal signals evoked by assay buffer or EC60 TCS2510 alone, respectively.
For IC50 determination, a dose-response test is performed using 10 concentrations (ranging over 4.5 logs) of each compound. Dose-response curves are fitted using the sigmoidal dose-response (variable slope) analysis in GraphPad Prism software (GraphPad Software) and IC50 of antagonist activity is calculated. Dose-response experiments are performed in duplicate, in two independent experiments. IC50 values are categorized as following: A: IC50<0.1 μM; B: IC50<1 μM.
(BRET reads energy transfer from a luciferase to a nearby fluorophore.)

T1 sequence (P35408 whole entry): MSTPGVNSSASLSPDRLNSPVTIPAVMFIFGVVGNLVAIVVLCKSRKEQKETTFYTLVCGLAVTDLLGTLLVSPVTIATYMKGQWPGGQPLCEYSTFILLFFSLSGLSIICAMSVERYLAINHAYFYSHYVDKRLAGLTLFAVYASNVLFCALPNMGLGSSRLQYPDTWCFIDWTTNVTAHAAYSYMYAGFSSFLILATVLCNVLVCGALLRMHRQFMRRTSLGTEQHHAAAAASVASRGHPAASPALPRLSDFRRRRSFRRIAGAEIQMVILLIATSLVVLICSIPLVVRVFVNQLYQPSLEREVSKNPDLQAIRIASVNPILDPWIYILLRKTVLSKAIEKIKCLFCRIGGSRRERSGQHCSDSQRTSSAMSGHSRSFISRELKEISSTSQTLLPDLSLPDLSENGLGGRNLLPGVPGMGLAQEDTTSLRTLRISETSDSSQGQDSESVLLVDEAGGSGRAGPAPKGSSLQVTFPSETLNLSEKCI

For `C[C@H](NC(=O)C1(c2ccc(OCCc3ccccc3)cc2)CCOCC1)c1ccc(C(=O)O)cc1` [Example 94], the IC50 was below 1 µM.

`C[C@H](NC(=O)C1(NCCOc2ccccc2)CC2(CCC2)C1)c1ccc(C(=O)O)cc1` [Example 68, 4-[(1S)-1-[[2-(2-Phenoxyethylamino)spiro[3.3]heptane-2-carbonyl]amino]ethyl]benzoic acid, hydrochloride] yielded an IC50 below 1 µM.

`C[C@H](NC(=O)C1(N2CC[C@@H](Oc3cccc(C(F)(F)F)c3)C2)CCCC1)c1ccc(C(=O)O)cc1` [Example 164, 4-[(1S)-1-[[1-[(3R)-3-[3-Trifluoromethyl)phenoxy]pyrrolidin-1-yl]cyclopentane-1-carbonyl]amino]ethyl]benzoic acid, hydrochloride] returned an IC50 below 0.1 µM.

`CN(CCOc1ccccc1)C1(C(=O)NC2(c3ccc(C(=O)O)c(Cl)c3)CC2)CCOCC1` [Example 51, 2-Chloro-4-[1-[[4-[methyl(2-phenoxyethyl)amino]tetrahydropyran-4-carbonyl]amino]cyclopropyl]benzoic acid, hydrochloride]: the IC50 is below 1 µM.

`C[C@H](NC(=O)C1(NCCCc2ccccc2)CCOCC1)c1ccc(C(=O)O)cc1` [Example 18, 4-[(1S)-1-[[4-(3-Phenylpropylamino)tetrahydropyran-4-carbonyl]amino]ethyl]benzoic acid, hydrochloride] yielded an IC50 below 1 µM.

For the molecule `C[C@H](NC(=O)C1(N2CC[C@@H](Oc3cccc(C(F)(F)F)c3)C2)CCOCC1)c1ccc(-c2cn[nH]c2)cc1` [Example 176, N—((S)-1-(4-(1H-Pyrazol-4-yl)phenyl)ethyl)-4-((R)-3-(3-(trifluoromethyl)phenoxy)pyrrolidin-1-yl)tetrahydro-2H-pyran-4-carboxamide, hydrochloride], the IC50 was below 0.1 µM.

In turn, `C[C@H](NC(=O)C1(c2cccc(OCc3ccccc3)c2)CCCC1)c1ccc(C(=O)O)cc1` [Example 113, 4-[(1S)-1-[[1-(3-Benzyloxyphenyl)cyclopentanecarbonyl]amino]ethyl]benzoic acid] yielded an IC50 below 0.1 µM.

Molecule `C[C@H](NC(=O)C(C)(C)N1CC[C@@H](Oc2cccc(C(F)(F)F)c2)C1)c1ccc(C(=O)O)cc1` [Example 167, hydrochloride] yielded an IC50 below 0.1 µM.

Molecule `C[C@H](NC(=O)C1(N2CC[C@@H](Oc3cccc(C(F)(F)F)c3)C2)CCOCC1)c1ccc(O)cc1` [Example 181, N—((S)-1-(4-Hydroxyphenyl)ethyl)-4-((R)-3-(3-(trifluoromethyl)phenoxy)pyrrolidin-1-yl)tetrahydro-2H-pyran-4-carboxamide, hydrochloride] gave an IC50 below 1 µM.

In the case of `C[C@H](NC(=O)C1(c2cccc(OCC3CCCCCC3)c2)CCOCC1)c1ccc(C(=O)O)cc1` [Example 103, 4-[(1S)-1-[[4-[3-(Cycloheptylmethoxy)phenyl]tetrahydropyran-4-carbonyl]amino]ethyl]benzoic acid], the IC50 was below 0.1 µM.

The molecule `C[C@H](NC(=O)C1(c2cc(OCC3CCCCC3)ccn2)CCOCC1)c1ccc(C(=O)O)cc1` [Example 117, 4-[(1S)-1-[[4-[4-(Cyclohexylmethoxy)-2-pyridyl]tetrahydropyran-4-carbonyl]amino]ethyl]benzoic acid] yielded an IC50 below 1 µM.

`C[C@H](NC(=O)C1(NCCOc2ccc(Cl)cc2)CCOCC1)c1ccc(C(=O)O)cc1` [Example 11, 4-[(1S)-1-[[4-[2-(4-Chlorophenoxy)ethylamino]tetrahydropyran-4-carbonyl]amino]ethyl]benzoic acid, hydrochloride] yielded an IC50 below 1 µM.

`C[C@H](NC(=O)C1(c2ccc(OCc3ccccc3)cc2)CCCC1)c1ccc(C(=O)O)cc1` [Example 109, 4-[(1S)-1-[[1-(4-Benzyloxyphenyl)cyclopentanecarbonyl]amino]ethyl]benzoic acid]: the IC50 was below 0.1 µM.

`C[C@H](NC(=O)C1(NCCOc2ccccc2)CCC(F)(F)CC1)c1ccc(C(=O)O)cc1` [Example 65, 4-[(1S)-1-[[4,4-Difluoro-1-(2-phenoxyethylamino)cyclohexanecarbonyl]amino]ethyl]benzoic acid, hydrochloride] had an IC50 below 1 µM.

Usually IC50 stands for the point on the concentration scale where inhibition reaches its midpoint. High values mean weaker potency in that assay, low ones greater potency in that assay.
